Data taken from patent US20220079194A1, “EXTRUDATE FOOD COMPOSITIONS COMPRISING CULTIVATED ANIMAL CELLS AND METHODS OF PRODUCTION THEREOF” (GOOD Meat, Inc., priority 2020, published 2022).

Experiments:
[1] = tested on: C1F chicken cells; assay: Alternative sugars as carbon source for C1F suspension cultures; type: cell-based; conditions: for viable cell density at peak: 3 g/L sugar from day 0, batch, day 3, 1.25% FBS
Method: We evaluated the impact of alternative sugars (mannose, fructose and galactose) on the growth and metabolism of an in-house C1F chicken cells grown in suspension cultures containing 1.25% FBS. Specific net growth rate (uN) and Specific glucose consumption rate (qGluc) or specific lactate production rate (qLac) were calculated according to equation 1 or 2 as disclosed in Example 12.
Suspension cultures as described herein were cultivated using 3 g/L of the respective sugars were added from day 0 and cultured in a batch mode up to day 3. On day 3 after sampling, an additional 3 g/L of each sugar was added to the respective flasks. By day 3, at the peak cell density, flasks that used glucose as carbon source had the highest viable cell density (˜2.805×10^6 cells/mL), followed by flasks with mannose (˜2.40×10^6 cells/mL), then fructose (1.935×10^6 cells/mL) and lastly galactose (0.915×10^6 cells/mL).
Since we observed that the C1F cells could utilize fructose as a carbon source, we evaluated the effect of different starting concentration of fructose. In one experiment, 6 g/L of fructose was added to one set of duplicate flasks from day 0, and 3 g/L of fructose added each to another set of duplicate flasks from day 0. In the flasks starting with 3 g/L of fructose, an additional 3 g/L of fructose was added on day 1 of one of the duplicates and day 2 of the other duplicate.
We next evaluated the effect of combining glucose, mannose and fructose on growth and lactate production. Using a design-of-experiment (DOE) approach, 17 batch shake flask runs were carried out evaluating varying combinations of concentrations of glucose, mannose and fructose as energy sources for suspension chicken C1F cells. The experimental design used included 3 factors (glucose, mannose and fructose) and 4 levels (0, 0.5, 1.5 and 3.0 g/L). By day 3, cells with the base carbon sources 3.0 glucose/0.5 fructose/0.5 mannose had the highest viable cell density (VCD) of 3.8×10^6 cell/mL, followed by 3.0 glucose/0.0 fructose/3.0 mannose and 3.0 glucose/3.0 fructose/3.0 mannose. […]

[2] = tested on: C1F cells; assay: Sodium oxamate treatment of C1F suspension culture (lactate, glucose, growth); type: cell-based, chicken
Method: […] cells were cultivated in suspension culture supplemented with 1.25% bovine serum. Different concentrations of sodium oxamate were tested: 1, 3, 5, 10, 30, 60, 100, and 200 mM, and production of lactate, glucose consumption, cell growth rates and cell density were measured. The specific rates were calculated using daily viable cell concentration and metabolite concentrations for the duration of the cell culture. Specific net growth rates (UN) were calculated as a change in VCD over a time interval t1 to t2 using equation (1): Specific glucose consumption rate (qGluc) or specific lactate production rate (qLac) were determined using equation (2), where P is glucose or lactate concentration: Viable cell density (VCD) and viability were determined by the trypan blue exclusion method using the Vi-cellTM (Beckman Coulter) from 1 mL daily samples taken from shake flask cell culture. Gas and pH values including metabolite (glucose, lactate glutamine, glutamate, ammonium) concentrations were measured using the Bioprofile Flex analyzer (Nova Biomedical). Osmolality was measured using the OsmoPro Multi-Sample Micro-Osmometer (Advanced Instruments) which employs the freezing point technology. To further examine if the effects of oxamate remained similar in cell culture with metabolic by-products already present, we passaged cells treated with 30 mM oxamate using a 1:3 (v/v) split with fresh media (1⁄3 of the volume of spent media and 2⁄3 of fresh media). Having been used in culture for several days, carried over media invariably contains residual amounts (carryover) of metabolites resultant from cell consumption.

[3] = tested on: C1F cells; assay: as above; type: cell-based, chicken; conditions: 10, 15, 20 and 30 mM, 3-day batch cell culture

| Compound | viable cell density at peak [1] | lactate accumulation, higher by day 3 ([1]; 6 g/L from day 0 vs 3 g/L from day 0 plus 3 g/L later) [%] | reduction in lactate production ([2]; 10 mM, day 2, C1F-SCM batch shake flasks, vs control, p<0.05) [%] | cell viability and osmolality of the media ([2]; 30 mM) | specific glucose consumption (qGluc) ([2]; 30 mM) | increase in maximum viable cell density ([2]; 30 mM vs control) [%] | ammonium accumulation ([2]; 30 mM, between days 3 and 5, relative to non-treated control) | reduction in cumulative lactate production ([2]; 30 mM, by day 5, vs control group) [%] | peak viable cell density ([2]; 30 mM, day 5, passaged 1:3 with spent media carryover) | lactate production ([2]; 30, 60, 100 and 200 mM, 3-day batch culture) | lactate production vs control ([2]; other concentrations tested (1, 3, 5 mM), day 2, C1F-SCM batch) | decrease in lactate production [3] |
| --- | --- | --- | --- | --- | --- | --- | --- | --- | --- | --- | --- | --- |
| O=C(CO)[C@@H](O)[C@H](O)[C@H](O)CO [fructose] | 1.935×10^6 cells/mL | 36 | – | – | – | – | – | – | – | – | – | – |
| NC(=O)C(=O)[O-].[Na+] [oxamate, sodium oxamate] | – | – | 28 | not compromised | decreased | ~44 | spiked out | ~23 | 2.79×10^6 cells/mL | concentration-dependent decrease | appreciable decrease in lactate production | about 52% |
| O=C[C@H](O)[C@@H](O)[C@@H](O)[C@H](O)CO [galactose] | 0.915×10^6 cells/mL | – | – | – | – | – | – | – | – | – | – | – |
